Measurements published in US11827657B2, “Boron containing pyrazole compounds, compositions comprising them, methods and uses thereof” (BOEHRINGER INGELHEIM ANIMAL HEALTH USA INC., priority 2020, dated 2023).

Each compound was assayed against JAK1 (Homo sapiens, UniProt P23458) (assay: Biochemical Kinase Assay (JAK), 33P-ATP filter-binding). Details: Biochemical Kinase Inhibition Assay; potency level of IC50; read-out: JAK1 (range).
Description: Biochemical Kinase Assay Protocol (JAK) • Reagent: Base Reaction buffer; 20 mM Hepes (pH 7.5), 10 mM MgCl2, 1 mM EGTA, 0.02% Brij™ 35, 0.02 mg/ml BSA, 0.1 mM Na3VO4, 2 mM DTT, 1% DMSO, where required cofactors were added individually to each kinase reaction.
Reaction Procedure: • 1. Prepared indicated substrate in freshly prepared Base Reaction Buffer • 2. Delivered any required cofactors to the substrate solution above • 3. Delivered indicated kinase into the substrate solution and gently mix • 4. Delivered compounds in DMSO into the kinase reaction mixture by Acoustic technology (Echo550; nanoliter range), incubated for 20 minutes at room temperature • 5. Delivered 33P-ATP into the reaction mixture to initiate the reaction. • 6. Incubated kinase reaction for 2 hours at room temperature • 7. Reactions were spotted onto P81 ion exchange paper • 8. Detected kinase activity by filter-binding method.
Compounds according to the present invention were tested in the Biochemical Kinase Assay Protocol. The results are provided below in Table 1, wherein the potency levels A, B, and C in the columns labeled JAK1 (range) correspond to IC50 as follows: A<10 nM; B=10-50 nM and C>50 nM. The Example Number entries formatted ##a represent stereoisomer one and entries formatted ##b represent stereoisomer two.

JAK1, sequence (P23458 whole entry, species assumed): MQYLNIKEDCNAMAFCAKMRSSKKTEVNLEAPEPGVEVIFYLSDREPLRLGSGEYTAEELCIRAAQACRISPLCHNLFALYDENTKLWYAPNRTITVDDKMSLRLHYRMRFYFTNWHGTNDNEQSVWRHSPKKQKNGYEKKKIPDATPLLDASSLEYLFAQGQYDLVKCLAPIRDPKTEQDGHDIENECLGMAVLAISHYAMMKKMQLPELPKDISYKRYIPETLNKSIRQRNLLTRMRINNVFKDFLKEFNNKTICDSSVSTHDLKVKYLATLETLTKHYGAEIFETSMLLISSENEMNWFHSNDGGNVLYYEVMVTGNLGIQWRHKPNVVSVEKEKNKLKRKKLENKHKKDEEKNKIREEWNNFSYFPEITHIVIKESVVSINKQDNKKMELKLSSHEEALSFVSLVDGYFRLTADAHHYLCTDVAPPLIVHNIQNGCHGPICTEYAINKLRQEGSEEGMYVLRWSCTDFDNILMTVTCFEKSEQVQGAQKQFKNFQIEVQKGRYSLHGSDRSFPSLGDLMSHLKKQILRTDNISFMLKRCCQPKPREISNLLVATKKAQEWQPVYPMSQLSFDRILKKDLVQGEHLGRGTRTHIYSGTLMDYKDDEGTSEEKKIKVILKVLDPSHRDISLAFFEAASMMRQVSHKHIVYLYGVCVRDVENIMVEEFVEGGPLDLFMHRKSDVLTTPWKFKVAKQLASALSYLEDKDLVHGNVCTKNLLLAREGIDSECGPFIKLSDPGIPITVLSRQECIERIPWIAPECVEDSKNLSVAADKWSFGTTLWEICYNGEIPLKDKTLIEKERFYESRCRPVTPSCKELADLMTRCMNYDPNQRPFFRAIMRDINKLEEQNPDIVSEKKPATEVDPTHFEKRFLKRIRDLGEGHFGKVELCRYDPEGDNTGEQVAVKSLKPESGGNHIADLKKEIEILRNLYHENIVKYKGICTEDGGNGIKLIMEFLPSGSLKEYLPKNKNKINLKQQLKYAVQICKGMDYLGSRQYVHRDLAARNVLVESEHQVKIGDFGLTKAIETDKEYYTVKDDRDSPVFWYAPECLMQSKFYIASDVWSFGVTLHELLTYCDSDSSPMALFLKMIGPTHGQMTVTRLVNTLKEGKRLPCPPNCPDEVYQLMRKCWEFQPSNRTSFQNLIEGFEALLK

Row | Compound | IC50 [nM]
1 | CC(C)C1=Cc2cc(Nc3nn([C@@H]4CCC[C@H]4C#N)cc3C(N)=O)ccc2OB1O (relative stereo) [Example 50, 1-(trans-2-cyanocyclopentyl)-3-[(2-hydroxy-3-isopropyl-1,2-benzoxaborinin-6-yl)amino]pyrazole-4-carboxamide] | < 10
2 | N#C[C@@H]1CCOC[C@H]1n1cc(C(N)=O)c(Nc2ccc3c(c2F)C=CB(O)O3)n1 (relative stereo) [Example 54, 1-(trans-4-cyanotetrahydro-2H-pyran-3-yl)-3-[(5-fluoro-2-hydroxy-1,2-benzoxaborinin-6-yl)amino]pyrazole-4-carboxamide] | 10 to 50
3 | CCC1=Cc2cc(Nc3nn([C@@H]4COCC[C@H]4C#N)cc3C(N)=O)ccc2OB1O (relative stereo) [Example 56, 1-(trans-4-cyanotetrahydro-2H-pyran-3-yl)-3-[(3-ethyl-2-hydroxy-1,2-benzoxaborinin-6-yl)amino]pyrazole-4-carboxamide] | < 10
4 | N#C[C@@H]1CCOC[C@H]1n1cc(C(N)=O)c(Nc2ccc3c(c2)C2CC2B(O)O3)n1 (relative stereo) [Example 57, 1-(trans-4-cyanotetrahydro-2H-pyran-3-yl)-3-[(2-hydroxy-1a,7b-dihydro-1H-cyclopropa[c][1,2]benzoxaborinin-6-yl)amino]pyrazole-4-carboxamide] | < 10
5 | CC1=CB(O)Oc2ccc(Nc3nn(C4COCCC4C#N)cc3C(N)=O)cc21 (single isomer, unassigned) [Example 3a, 1-[trans-4-cyanotetrahydro-2H-pyran-3-yl]-3-[(2-hydroxy-4-methyl-1,2-benzoxaborinin-6-yl)amino]pyrazole-4-carboxamide (stereoisomerone)] | < 10
6 | CC1=CB(O)Oc2ccc(Nc3nn(C4COCCC4C#N)cc3C(N)=O)cc21 (single isomer, unassigned) [Example 3b, 1-[trans-4-cyanotetrahydropyran-3-yl]-3-[(2-hydroxy-4-methyl-1,2-benzoxaborinin-6-yl)amino]pyrazole-4-carboxamide (stereoisomer two)] | 10 to 50
7 | Cc1cc(Nc2nn(C3COCCC3C#N)cc2C(N)=O)cc2c1B(O)OC2 (single isomer, unassigned) [Example 6a, 1-[trans-4-cyanotetrahydropyran-3-yl]-3-[(1-hydroxy-7-methyl-3H-2,1-benzoxaborol-5-yl)amino] pyrazole-4-carboxamide (stereoisomerone)] | < 10
8 | Cc1cc(Nc2nn(C3COCCC3C#N)cc2C(N)=O)cc2c1B(O)OC2 (single isomer, unassigned) [Example 6b, 1-[trans-4-cyanotetrahydropyran-3-yl]-3-[(1-hydroxy-7-methyl-3H-2,1-benzoxaborol-5-yl)amino]pyrazole-4-carboxamide (stereoisomer two)] | 10 to 50
9 | N#C[C@@H]1CCOC[C@H]1n1cc(C(N)=O)c(Nc2cc(Cl)c3c(c2)C=CB(O)O3)n1 (single isomer, unassigned) [Example 13a, 3-[(8-chloro-2-hydroxy-1,2-benzoxaborinin-6-yl)amino]-1-[trans-4-cyanotetrahydro-2H-pyran-3-yl]pyrazole-4-carboxamide] | < 10
10 | N#C[C@@H]1CCOC[C@H]1n1cc(C(N)=O)c(Nc2cc(Cl)c3c(c2)C=CB(O)O3)n1 (single isomer, unassigned) [Example 13b, 3-[(8-chloro-2-hydroxy-1,2-benzoxaborinin-6-yl)amino]-1-[trans-4-cyanotetrahydro-2H-pyran-3-yl]pyrazole-4-carboxamide] | < 10
11 | CC1=Cc2cc(Nc3nn([C@@H]4COCC[C@H]4C#N)cc3C(N)=O)cc(F)c2OB1O (single isomer, unassigned) [Example 14a, 1-[trans-4-cyanotetrahydro-2H-pyran-3-yl]-3-[(8-fluoro-2-hydroxy-3-methyl-1,2-benzoxaborinin-6-yl)amino]pyrazole-4-carboxamide] | < 10
12 | CC1=Cc2cc(Nc3nn([C@@H]4COCC[C@H]4C#N)cc3C(N)=O)cc(F)c2OB1O (single isomer, unassigned) [Example 14b, 1-[trans-4-cyanotetrahydro-2H-pyran-3-yl]-3-[(8-fluoro-2-hydroxy-3-methyl-1,2-benzoxaborinin-6-yl)amino]pyrazole-4-carboxamide] | 10 to 50
13 | N#C[C@@H]1CCOC[C@H]1n1cc(C(N)=O)c(Nc2ccc3c(c2)B(O)OC3)n1 (single isomer, unassigned) [Example 16a, 1-(trans-4-cyanotetrahydro-2H-pyran-3-yl)-3-((1-hydroxy-1,3-dihydrobenzo[c][1,2]oxaborol-6-yl)amino)-1H-pyrazole-4-carboxamide] | > 50
14 | N#C[C@@H]1CCOC[C@H]1n1cc(C(N)=O)c(Nc2ccc3c(c2)B(O)OC3)n1 (single isomer, unassigned) [Example 16b, 1-(trans-4-cyanotetrahydro-2H-pyran-3-yl)-3-((1-hydroxy-1,3-dihydrobenzo[c][1,2]oxaborol-6-yl)amino)-1H-pyrazole-4-carboxamide] | < 10
15 | Cc1c(Nc2nn([C@@H]3COCC[C@H]3C#N)cc2C(N)=O)ccc2c1C=CB(O)O2 (single isomer, unassigned) [Example 17a, 1-[trans-4-cyanotetrahydro-2H-pyran-3-yl]-3-[(2-hydroxy-5-methyl-1,2-benzoxaborinin-6-yl)amino]pyrazole-4-carboxamide] | > 50
16 | Cc1c(Nc2nn([C@@H]3COCC[C@H]3C#N)cc2C(N)=O)ccc2c1C=CB(O)O2 (single isomer, unassigned) [Example 17b, 1-[trans-4-cyanotetrahydropyran-3-yl]-3-[(2-hydroxy-5-methyl-1,2-benzoxaborinin-6-yl)amino]pyrazole-4-carboxamide] | > 50
17 | CC1=C(C)c2cc(Nc3nn([C@@H]4COCC[C@H]4C#N)cc3C(N)=O)cc(C)c2OB1O (single isomer, unassigned) [Example 23a, 1-[trans-4-cyanotetrahydro-2H-pyran-3-yl]-3-[(2-hydroxy-3,4,8-trimethyl-1,2-benzoxaborinin-6-yl)amino]pyrazole-4-carboxamide] | < 10
18 | CC1=C(C)c2cc(Nc3nn([C@@H]4COCC[C@H]4C#N)cc3C(N)=O)cc(C)c2OB1O (single isomer, unassigned) [Example 23b, 1-[trans-4-cyanotetrahydro-2H-pyran-3-yl]-3-[(2-hydroxy-3,4,8-trimethyl-1,2-benzoxaborinin-6-yl)amino]pyrazole-4-carboxamide] | > 50
19 | Cc1cc(Nc2nn([C@@H]3COCC[C@H]3C#N)cc2C(N)=O)cc2c1OB(O)C=C2 (single isomer, unassigned) [Example 27a, 1-[trans-4-cyanotetrahydropyran-3-yl]-3-[(2-hydroxy-8-methyl-1,2-benzoxaborinin-6-yl)amino]pyrazole-4-carboxamide] | 10 to 50
20 | Cc1cc(Nc2nn([C@@H]3COCC[C@H]3C#N)cc2C(N)=O)cc2c1OB(O)C=C2 (single isomer, unassigned) [Example 27b, 1-[trans-4-cyanotetrahydropyran-3-yl]-3-[(2-hydroxy-8-methyl-1,2-benzoxaborinin-6-yl)amino]pyrazole-4-carboxamide] | < 10
21 | N#C[C@@H]1CCOC[C@H]1n1cc(C(N)=O)c(Nc2cc3c(c(C(F)(F)F)c2)OB(O)C=C3)n1 (single isomer, unassigned) [Example 28a, 1-[trans-4-cyanotetrahydro-2H-pyran-3-yl]-3-[[2-hydroxy-8-(trifluoromethyl)-1,2-benzoxaborinin-6-yl]amino]pyrazole-4-carboxamide] | > 50
22 | N#C[C@@H]1CCOC[C@H]1n1cc(C(N)=O)c(Nc2cc3c(c(C(F)(F)F)c2)OB(O)C=C3)n1 (single isomer, unassigned) [Example 28b, 1-[trans-4-cyanotetrahydro-2H-pyran-3-yl]-3-[[2-hydroxy-8-(trifluoromethyl)-1,2-benzoxaborinin-6-yl]amino]pyrazole-4-carboxamide] | < 10
23 | CC(C)C1=CB(O)Oc2ccc(Nc3nn([C@@H]4COCC[C@H]4C#N)cc3C(N)=O)cc21 (single isomer, unassigned) [Example 30a, 1-[trans-4-cyanotetrahydro-2H-pyran-3-yl]-3-[(2-hydroxy-4-isopropyl-1,2-benzoxaborinin-6-yl)amino]pyrazole-4-carboxamide] | > 50
24 | CC(C)C1=CB(O)Oc2ccc(Nc3nn([C@@H]4COCC[C@H]4C#N)cc3C(N)=O)cc21 (single isomer, unassigned) [Example 30b, 1-[trans-4-cyanotetrahydro-2H-pyran-3-yl]-3-[(2-hydroxy-4-isopropyl-1,2-benzoxaborinin-6-yl)amino]pyrazole-4-carboxamide] | < 10
25 | CC1(C)OB(O)c2cc(Nc3nn([C@@H]4COCC[C@H]4C#N)cc3C(N)=O)ccc21 (single isomer, unassigned) [Example 36a, 1-[trans-4-cyanotetrahydro-2H-pyran-3-yl]-3-[(1-hydroxy-3,3-dimethyl-2,1-benzoxaborol-6-yl)amino]pyrazole-4-carboxamide] | < 10
26 | CC1(C)OB(O)c2cc(Nc3nn([C@@H]4COCC[C@H]4C#N)cc3C(N)=O)ccc21 (single isomer, unassigned) [Example 36b, 1-[trans-4-cyanotetrahydro-2H-pyran-3-yl]-3-[(1-hydroxy-3,3-dimethyl-2,1-benzoxaborol-6-yl)amino]pyrazole-4-carboxamide] | < 10
